Results taken from ChEMBL document CHEMBL1153923, “Carbonic anhydrase inhibitors. Inhibition of human erythrocyte isozymes I and II with a series of antioxidant phenols” (Bioorg Med Chem, 2009).

How the values were obtained:
[1] = molecular target: Carbonic anhydrase 1 (Homo sapiens, UniProt P00915); experiment: Inhibition of human erythrocyte CA1 esterase activity using 4-nitrophenyl acetate substrate
[2] = molecular target: Carbonic anhydrase 2 (Homo sapiens, UniProt P00918)
Description: Inhibition of human erythrocyte CA2 esterase activity using 4-nitrophenyl acetate substrate

Chain of Carbonic anhydrase 1 (P00915 whole entry): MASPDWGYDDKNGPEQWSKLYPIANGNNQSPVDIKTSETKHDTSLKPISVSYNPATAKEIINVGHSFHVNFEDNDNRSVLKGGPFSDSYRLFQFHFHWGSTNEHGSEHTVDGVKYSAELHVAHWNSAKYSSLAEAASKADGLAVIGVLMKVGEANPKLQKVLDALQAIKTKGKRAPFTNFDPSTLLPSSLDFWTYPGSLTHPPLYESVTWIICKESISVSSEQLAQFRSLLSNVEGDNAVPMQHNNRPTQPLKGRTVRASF

Row | Ki [1] [µM] | Ki [2] [µM] | SMILES
1 | 37.9 | – | CC(C)c1cc(-c2cc(C(C)C)c(O)c(C(C)C)c2)cc(C(C)C)c1O
2 | 60.2 | 2.94 | COc1ccccc1O [GUAIACOL]
3 | 63.7 | – | COc1cc(C(C)(C)C)c(O)c(C(C)(C)C)c1
4 | 245 | 0.63 | Cc1cc(C(C)(C)C)c(O)c(C(C)(C)C)c1 [BUTYLATED HYDROXYTOLUENE]
5 | 37.5 | – | CC(C)(C)c1cc(-c2cc(C(C)(C)C)c(O)c(C(C)(C)C)c2)cc(C(C)(C)C)c1O
6 | 55.6 | – | COc1c(O)cccc1C=O
7 | 92.8 | 4.05 | Cc1cc(-c2cc(C)c(O)c(C)c2)cc(C)c1O
8 | 275 | – | CC(C)(C)c1cccc(C(C)(C)C)c1O

Row | SMILES | Ki [1] [µM] | Ki [2] [µM]
9 | Cc1cccc(C)c1O | 198 | 113
10 | CC(C)c1cccc(C(C)C)c1O [PROPOFOL] | 98.9 | 19.5
